The values below are quoted from earlier work in patent publication US20080207756A1, “Bio-absorbable oil suspension” (ATRIUM MEDICAL CORPORATION, priority 2007, published 2008).

Structures can show the parent of a compound that is named as a salt.

For the series the following is noted: liquid Bupivacaine HCL without epinephrine.

Consider `CCCCN1CCCCC1C(=O)Nc1c(C)cccc1C` (stereo not shown) [Bupivacaine HCL], for which the half life was 2 to 3 h.
